Assay results taken from ChEMBL document CHEMBL3425433, “Discovery of bicyclic pyrazoles as class III histone deacetylase SIRT1 and SIRT2 inhibitors” (Bioorg Med Chem Lett, 2015).
Activity calls are given as the source filed them. The calls are words filed in the database; no cut-off is given here.

Key:
[1] = biological target: T1, Protein deacetylase HDAC6 (Homo sapiens, UniProt Q9UBN7); assay: Inhibition of HDAC6 (unknown origin)
T1 sequence (Q9UBN7 whole entry): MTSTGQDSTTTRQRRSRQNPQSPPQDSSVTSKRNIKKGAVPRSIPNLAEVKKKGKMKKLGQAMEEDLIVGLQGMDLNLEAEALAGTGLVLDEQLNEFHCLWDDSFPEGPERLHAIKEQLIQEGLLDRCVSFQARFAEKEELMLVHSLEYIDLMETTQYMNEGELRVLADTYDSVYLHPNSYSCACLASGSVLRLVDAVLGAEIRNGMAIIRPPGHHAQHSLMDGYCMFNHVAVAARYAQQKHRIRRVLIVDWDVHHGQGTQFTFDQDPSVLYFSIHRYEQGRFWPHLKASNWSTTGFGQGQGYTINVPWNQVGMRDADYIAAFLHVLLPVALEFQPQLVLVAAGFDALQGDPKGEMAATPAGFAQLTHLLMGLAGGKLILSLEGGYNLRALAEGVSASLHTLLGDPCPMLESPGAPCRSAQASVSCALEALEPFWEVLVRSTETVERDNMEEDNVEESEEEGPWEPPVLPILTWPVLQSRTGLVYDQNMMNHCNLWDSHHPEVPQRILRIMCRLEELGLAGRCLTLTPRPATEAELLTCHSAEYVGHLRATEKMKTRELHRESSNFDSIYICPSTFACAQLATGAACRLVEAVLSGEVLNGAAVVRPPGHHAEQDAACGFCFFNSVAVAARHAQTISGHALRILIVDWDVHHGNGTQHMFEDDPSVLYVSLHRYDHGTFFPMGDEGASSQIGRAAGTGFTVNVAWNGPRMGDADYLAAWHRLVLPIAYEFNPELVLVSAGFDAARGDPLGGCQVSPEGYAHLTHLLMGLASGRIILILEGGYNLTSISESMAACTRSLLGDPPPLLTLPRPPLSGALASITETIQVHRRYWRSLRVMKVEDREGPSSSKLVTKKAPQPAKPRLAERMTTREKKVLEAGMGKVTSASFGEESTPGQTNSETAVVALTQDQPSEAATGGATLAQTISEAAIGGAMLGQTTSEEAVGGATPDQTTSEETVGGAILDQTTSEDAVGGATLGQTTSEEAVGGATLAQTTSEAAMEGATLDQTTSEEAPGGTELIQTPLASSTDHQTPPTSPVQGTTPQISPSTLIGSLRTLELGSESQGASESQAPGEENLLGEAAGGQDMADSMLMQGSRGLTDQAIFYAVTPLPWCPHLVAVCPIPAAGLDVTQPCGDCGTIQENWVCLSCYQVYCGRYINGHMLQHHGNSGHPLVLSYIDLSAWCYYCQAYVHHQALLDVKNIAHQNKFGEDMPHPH

Histone deacetylase 8 = biological target: T2, Histone deacetylase 8 (Homo sapiens, UniProt Q9BY41); assay: Inhibition of HDAC8 (unknown origin)
T2 sequence (Q9BY41 whole entry): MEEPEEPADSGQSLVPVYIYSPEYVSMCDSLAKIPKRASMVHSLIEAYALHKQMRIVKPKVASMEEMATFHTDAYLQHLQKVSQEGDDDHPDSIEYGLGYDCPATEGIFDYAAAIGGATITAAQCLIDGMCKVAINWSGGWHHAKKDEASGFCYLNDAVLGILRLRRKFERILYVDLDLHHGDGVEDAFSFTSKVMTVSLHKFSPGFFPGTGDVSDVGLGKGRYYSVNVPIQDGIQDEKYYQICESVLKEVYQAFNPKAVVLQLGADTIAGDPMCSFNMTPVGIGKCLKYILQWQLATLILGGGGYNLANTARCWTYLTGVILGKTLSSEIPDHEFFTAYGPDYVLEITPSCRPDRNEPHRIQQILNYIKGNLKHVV

[2] = biological target: T3, Histone deacetylase 7 (Homo sapiens) (UniProt Q8WUI4); assay: Inhibition of HDAC7 (unknown origin) at 20 uM
T3 sequence (whole entry): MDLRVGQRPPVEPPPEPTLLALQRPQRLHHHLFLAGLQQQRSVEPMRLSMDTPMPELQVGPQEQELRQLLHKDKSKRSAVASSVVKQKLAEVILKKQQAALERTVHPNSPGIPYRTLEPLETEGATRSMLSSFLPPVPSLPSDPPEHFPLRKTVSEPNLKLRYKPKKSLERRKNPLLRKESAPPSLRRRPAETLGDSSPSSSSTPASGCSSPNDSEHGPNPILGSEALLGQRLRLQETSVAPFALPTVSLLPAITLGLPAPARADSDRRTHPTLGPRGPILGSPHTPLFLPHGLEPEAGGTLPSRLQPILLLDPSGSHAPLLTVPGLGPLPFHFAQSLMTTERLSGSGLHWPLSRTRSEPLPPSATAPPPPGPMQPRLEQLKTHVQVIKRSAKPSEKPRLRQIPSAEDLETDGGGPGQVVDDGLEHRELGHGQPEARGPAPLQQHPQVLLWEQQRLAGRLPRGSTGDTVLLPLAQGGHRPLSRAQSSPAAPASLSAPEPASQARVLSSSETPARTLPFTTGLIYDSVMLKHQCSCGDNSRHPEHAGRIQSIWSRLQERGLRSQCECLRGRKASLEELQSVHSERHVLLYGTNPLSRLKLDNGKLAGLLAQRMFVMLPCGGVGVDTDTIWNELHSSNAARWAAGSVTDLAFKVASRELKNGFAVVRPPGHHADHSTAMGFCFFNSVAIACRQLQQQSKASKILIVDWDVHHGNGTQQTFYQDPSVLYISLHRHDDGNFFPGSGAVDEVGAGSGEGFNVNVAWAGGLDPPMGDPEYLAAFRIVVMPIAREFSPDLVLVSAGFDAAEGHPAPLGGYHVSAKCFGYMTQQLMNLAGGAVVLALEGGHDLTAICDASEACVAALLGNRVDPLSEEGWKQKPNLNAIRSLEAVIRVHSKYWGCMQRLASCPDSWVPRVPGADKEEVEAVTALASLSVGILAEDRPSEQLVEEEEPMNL

Question: Which results are given for NC(=O)C1CCCc2c(-c3ccc(Cl)c(Cl)c3)n[nH]c21 (racemic)?
Answer: IC50 [1]: > 10 µM; IC50 (Histone deacetylase 8): > 10 µM; inhibition [2]: inactive
